Tested on: melittin and intact BCaM:melittin complex
Assay type: binding, bovine

SMILES: CN1CCN(CCCN2c3ccccc3Sc3ccc(C(F)(F)F)cc32)CC1 [TFP, trifluoperazine]
- Effect on emission wavelength and anisotropy of the intact complex or of melittin: not affected
- Effect on intensity of melittin or the intact complex: large decrease in intensity

Source: patent publication US7118921B1, “Incorporation and applications of biomolecular interactions within a carrier” (McMaster University, priority 1999, dated 2006)
